The values below come from patent US20210079402A1, “INHIBITION OF ZSCAN4 FOR INHIBITION OF TUMOR GROWTH” (University of Maryland, Baltimore, priority 2018, published 2021).

Where a SMILES comes first, the peptide text is derived from it. The star is where a group is joined. Cbz = O=C(OCc1ccccc1)*

Assay [1] concerns autophagy in tet-ZSCAN4 Tu167 cells. Briefly: Autophagy pathway assay (immunoblot). It counts as cell-based, human. Conditions: 5 nM Bafilomycin A1 or 25 μM Chloroquine. Here is the method: tet-ZSCAN4 Tu167 cells were treated for 24 h with Dox and then autophagy inhibitors: 5 nM of Bafilomycin A1 or 25 μM of Chloroquine (Sigma) were added for 24 h. Whole cell lysate (50 μg) in RIPA buffer was used on 8% SDS-PAGE analyzed by immunoblot to visualize the following antigens: anti-ZSCAN4 (1:1000; Origene), anti-p62 (1:5000; Sigma), anti-LC3 (1:1000; CellSignaling Technology), Anti-Beta Actin (1:10,000; Millipore). All data shown represent at least 3 independent experiments.

The test system of assay [2] is proteasome. Briefly: ZSCAN4 accumulation after proteasome inhibition (immunoblot). The assay is classed as cell-based, human. Here is the method:
Nuclear proteins were fractionated using Nuclear Extraction Kit following manufacture's protocol (Active Motif). Total cell lysate was prepared in RIPA buffer and sonicated. For the detection of endogenous ZSCAN4 in Tu167 cells, cells were harvested by accutase (Millipore) and Cytoskeleton buffer (10 mM PIPES, 300 mM sucrose, 100 mM NaCl, 3 mM MgCl2, 1 mM EGTA and 0.5% Triton X100) was used to fractionate cytosolic proteins. Then, pellets were lysed in urea solution (8 M Urea in 0.01 Tris pH 8+0.1 M NaH2PO4) and sonicated. Nuclear proteins were electrophoresed in 8% polyacrylamide gels and transferred to a PVDF membrane. Immunoblot was performed using the following primary antibodies: ZSCAN4 (Origene; 1:1000), GAPDH (Santa Cruz; 1:5000), Actin (Sigma; 1:500), Lamin B (Santa Cruz; 1:2000) and with HRP (horseradish peroxidase) conjugated secondary antibodies (Millipore; 1:5000). Protein bands were detected using Pierce ECL Western Blotting Substrate (Thermo Scientific). SuperSignal West Femto (Thermo Scientific) was used to detect endogenous ZSCAN4 in Tu167 cells. All immunoblots shown represent at least 3 independent experiments.
WT Tu167 cells were treated with indicated concentration of MG132 for 3-12 h. Cells treated with vehicle only were used as controls. Nuclear protein was isolated using urea extraction buffer. Then, 100 μg of nuclear lysate was diluted in IP-RIPA buffer with 0.1% SDS and denatured by heating to 90° C. for 10 minutes. Samples were taken for co-immunoprecipitation and immunoblot analyses.
This prompted examination of the UPS. tet-ZSCAN4 cells were incubated with the proteasome inhibitor MG132 at multiple time points. […] Furthermore, we show a time dependence (FIG. 18C) and a dose response (FIG. 18D) to proteasome inhibition by MG132.
To exclude that the response was specific to the exogenous ZSCAN4 induction, wild type (WT) Tu167 cells were treated with 5 uM MG132 for 0-12 h.

The test system of assay [3] is proteasome. The assay is described as follows: ZSCAN4 / K48 ubiquitin co-localization by confocal microscopy. The assay is classed as cell-based, human. Conditions: WT Tu167 cells, 5 h; untreated about 5%. Here is the method:
Cells were fixed in ice cold methanol/acetic acid (3:1). The fixed cells were dropped on microscope slides. Antigen retrieval was performed followed by blocking for 10 min at room temperature. Primary antibody was incubated overnight at 4° C. for the following antigens: ZSCAN4 (Origene, 1:1000) and Ubiquitin Lysine 48 (Millipore 1: 2000). The slides were washed and incubated with secondary antibodies conjugated with Alexa-488 or 568 at room temperature for 1 h and then treated with DAPI and To-Pro-3 to stain the nuclei. Slides were mounted and visualized by a Zeiss 510-confocal microscope. Co-localization analyses were performed by ImageJ software (Schneider et al., 2012);
To further validate the lysine 48 polyubiquitination of ZSCAN4 protein, WT Tu167 cells were treated with or without MG132 for 5 h and co-immunostained for anti-K48-Ub and anti-ZSCAN4 (FIG. 19C).

Another assay deals with T1, telomerase (UniProt O14746 1-1132, limits assumed).
T1 construct: The tie to the hTERT protein subunit is my reading; also called hTERT
The assay is described as follows: ZSCAN4 complex analysis (ZSCAN4 immunoprecipitation followed by mass spectrometry).

T1 sequence (O14746 whole entry): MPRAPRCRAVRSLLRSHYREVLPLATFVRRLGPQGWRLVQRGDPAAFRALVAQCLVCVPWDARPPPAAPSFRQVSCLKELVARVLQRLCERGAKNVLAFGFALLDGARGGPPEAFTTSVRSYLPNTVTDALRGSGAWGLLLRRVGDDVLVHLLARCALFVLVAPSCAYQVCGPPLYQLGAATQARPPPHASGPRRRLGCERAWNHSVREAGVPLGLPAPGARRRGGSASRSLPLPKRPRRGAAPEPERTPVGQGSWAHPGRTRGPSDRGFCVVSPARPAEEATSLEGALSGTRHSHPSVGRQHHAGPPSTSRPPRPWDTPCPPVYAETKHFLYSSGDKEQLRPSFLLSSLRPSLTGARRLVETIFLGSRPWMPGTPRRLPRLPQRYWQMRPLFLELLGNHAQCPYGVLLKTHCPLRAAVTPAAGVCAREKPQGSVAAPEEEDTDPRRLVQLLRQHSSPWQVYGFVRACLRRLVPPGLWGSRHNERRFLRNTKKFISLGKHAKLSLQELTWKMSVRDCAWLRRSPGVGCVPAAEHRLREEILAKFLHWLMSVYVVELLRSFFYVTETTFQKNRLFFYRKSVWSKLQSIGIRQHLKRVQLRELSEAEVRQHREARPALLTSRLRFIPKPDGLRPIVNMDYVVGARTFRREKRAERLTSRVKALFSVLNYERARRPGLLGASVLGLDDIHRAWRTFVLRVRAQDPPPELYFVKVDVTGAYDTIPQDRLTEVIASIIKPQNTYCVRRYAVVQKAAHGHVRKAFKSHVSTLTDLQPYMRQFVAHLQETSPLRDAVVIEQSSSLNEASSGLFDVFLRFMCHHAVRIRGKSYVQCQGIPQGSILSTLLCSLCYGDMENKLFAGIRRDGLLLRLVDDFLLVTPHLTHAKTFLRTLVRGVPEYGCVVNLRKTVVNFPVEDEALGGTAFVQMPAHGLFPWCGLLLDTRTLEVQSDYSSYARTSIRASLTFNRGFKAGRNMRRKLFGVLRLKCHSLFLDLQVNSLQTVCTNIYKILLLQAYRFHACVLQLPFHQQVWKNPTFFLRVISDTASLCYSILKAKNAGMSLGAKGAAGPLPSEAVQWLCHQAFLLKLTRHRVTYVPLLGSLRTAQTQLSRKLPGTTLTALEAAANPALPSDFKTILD

Consider `CO/C1=C\C(C)=C\[C@@H](C)[C@@H](O)[C@@H](C)C/C(C)=C/C=C/[C@H](OC)[C@@H]([C@@H](C)[C@@H](O)[C@H](C)[C@@]2(O)C[C@@H](O)[C@H](C)[C@@H](C(C)C)O2)OC1=O` [Bafilomycin A1], for which, in assay [1], the ZSCAN4 levels entry is given as “remained unchanged”; the “p62 and LC-3 levels” value is recorded as “accumulate”.

`CCN(CC)CCCC(C)Nc1ccnc2cc(Cl)ccc12` (stereo not drawn) [Chloroquine]: in assay [1], the ZSCAN4 levels result was “remained unchanged”; the “p62 and LC-3 levels” value is “accumulate”.

Regarding `CC(C)C[C@@H](C=O)NC(=O)[C@H](CC(C)C)NC(=O)[C@H](CC(C)C)NC(=O)OCc1ccccc1` [MG132] (Cbz-Leu-Leu-Leu-aldehyde), the “ZSCAN4 accumulation versus dose” value in the assay on proteasome [2] (tet-ZSCAN4 cells) is listed as “dose response”. In addition, in the assay with proteasome [2] (tet-ZSCAN4 cells, multiple time points through 12 h), the “ZSCAN4 accumulation over time” value is reported as “time dependent accumulation of ZSCAN4”. Moreover, the “endogenous ZSCAN4 level” value in the assay with proteasome [2] (wild type Tu167 cells, 5 uM, 0-12 h) was “endogenous ZSCAN4 accumulates”. In the assay on proteasome [3], the “fraction of ZSCAN4 co-localized with K48-Ub relative to untreated” value is 4 fold.

B1: human ZSCAN4 (Zinc finger and SCAN domain containing 4) (other, UniProt Q8NAM6 1-433, looked up)
chain: MALDLRTIFQCEPSENNLGSENSAFQQSQGPAVQREEGISEFSRMVLNSFQDSNNSYARQELQRLYRIFHSWLQPEKHSKDEIISLLVLEQFMIGGHCNDKASVKEKWKSSGKNLERFIEDLTDDSINPPALVHVHMQGQEALFSEDMPLRDVIVHLTKQVNAQTTREANMGTPSQTSQDTSLETGQGYEDEQDGWNSSSKTTRVNENITNQGNQIVSLIIIQEENGPRPEEGGVSSDNPYNSKRAELVTARSQEGSINGITFQGVPMVMGAGCISQPEQSSPESALTHQSNEGNSTCEVHQKGSHGVQKSYKCEECPKVFKYLCHLLAHQRRHRNERPFVCPECQKGFFQISDLRVHQIIHTGKKPFTCSMCKKSFSHKTNLRSHERIHTGEKPYTCPFCKTSYRQSSTYHRHMRTHEKITLPSVPSTPEAS
notes: Immunoprecipitated from nuclear protein lysates; also called FLAG-ZSCAN4; tet-FLAG-ZSCAN4
Consider B1, for which the binding result with telomerase was “no binding”.
